# Data as given in publication PMC9054212, “Discovery of 4-(2-(dimethylamino)ethoxy)benzohydrazide derivatives as prospective microtubule affinity regulating kinase 4 inhibitors” (RSC Advances, 2020).
# Where two headings read alike, the source gives them in different places.
# How the values were obtained:
# [1] = system: MCF-7 cells; assay: Trans-well cell migration assay, MCF-7; assay type: cell-based, human; details: IC50 concentration, 24 h, Boyden chamber, vs control
# Procedure: (§1) Trans-well migration assay was performed using a modified Boyden chamber containing cell culture inserts (8 μm pore size, polyethylene terephthalate track-etched membrane, BD Falcon #353093). Briefly, cells were serum-starved for 3–4 h, trypsinized and suspended in a serum-free medium. In the upper chamber of cell culture insert, an equal number of cells with the IC50 dose of selected compounds or DMSO (control) were plated and in the lower chamber of well plate, 10% FBS-DMEM (for chemotaxis movement) was added. The cells were allowed to migrate for 24 h in a humidified 5% CO2 incubator at 37 °C and the migrated cells (that invaded through membrane pores) onto the lower side of Trans-well cell culture insert were fixed with methanol and staining was performed using 0.4% crystal violet in 25% methanol. The remaining cells present on the upper side of the chamber were wiped off with the help of cell scrapper/tissue wipes. Finally, the migrated cells present on the lower surface of the cell culture insert were imaged using a light microscope and counted in 3–5 random fields.
# [2] = system: A549 cells; assay: Colony formation assay, A549; assay type: cell-based, human; details: IC50 concentration, 10–12 days, vs control
# Procedure: (§2) The colony-forming assay was performed to evaluate the effect of selected compounds on cell colonization potential of cancer cells. Briefly, cells were plated at a density of 1000–2000 (A549/MCf-7) cells per well in a six-well cell culture plate. Cells were grown for at least 24 h in cell growth medium and then incubated with IC50 concentration of selected compounds for 10–12 days at 37 °C (in a humidified 5% CO2 incubator). Control cells were treated with an equal percentage of DMSO. After 10–12 days, the cell colonies were fixed with 100% methanol and staining was performed using 0.4% crystal violet in 25% methanol. The colonies obtained was counted, plotted and compared with the controls.
# [3] = system: A549 cells; assay: Trans-well cell migration assay, A549; assay type: cell-based, human; details: IC50 concentration, 24 h, Boyden chamber, vs control
# Procedure: as §1
# [4] = system: MARK4 and p-tau in MCF-7 cells; assay: Immunoblotting of MARK4 and p-tau in treated MCF-7 cells; assay type: cell-based, human; details: IC50 concentration, vs control
# Procedure: The compound treated cell line samples were lysed in RIPA cell lysis buffer (Thermo Fisher Scientific, USA) in an ice-cold condition using ultrasonication. Total protein was isolated and protein estimation was performed using Bicinchoninic Acid Assay (BCA-protein estimation kit). Nearly 30–40 μg of whole protein lysate was diluted with 6× Laemmli's buffer, boiled for 3–5 min and resolved using 10–12% SDS-polyacrylamide electrophoresis under reducing conditions. The resolved polypeptides were transferred to polyvinylidene fluoride (PVDF) membrane through blotting, peptide-specific primary antibodies were used for identification and horseradish peroxidase coupled conjugates were used for visualization using luminol as a chemiluminescent substrate.[40]
# Next, we tried to see the inhibition potential of these molecules at the cellular level. Cells were treated with IC50 concentration of each molecule and processed for the expression studied of MARK4 and p-tau (substrate of MARK4). […] Phosphorylation of tau correspondingly decreases in the treated cells as compared to control (Fig. 1B).
# [5] = system: MCF-7 cells; assay: Colony formation assay, MCF-7; assay type: cell-based, human; details: IC50 concentration, 10–12 days, vs control
# Procedure: as §2
# [6] = system: HEK293 cells; assay: MTT cell viability assay, non-cancerous HEK293; assay type: cell-based, human; details: at the IC50 or active concentration, compared with cancerous cells
# Procedure: (§3) Human cell lines (HEK-293, A549 and MCF-7) were seeded and maintained in a medium supplemented with DMEM along with 10% heat-inactivated fetal bovine serum (Gibco) and 1% penicillin, streptomycin solution (Gibco), cultured in a 5% CO2 humidified incubator at 37 °C. Cell cultures were maintained and trypsinized regularly, not for more than 30 passages. MTT assay was carried out to see the effect of selected hydrazone compound treatment on the viability of non-cancerous (HEK-293) and cancerous cell lines (A549 and MCF-7) as per described method.[22,24] In brief, 6000–7000 cells per well were seeded in a 96-well plate and after 24 h growth, the cells were treated with increasing concentrations (0–200 μM) of each hydrazone (final volume of 200 μL) for 48 h at 37 °C in a humidified chamber. After 48 h, MTT was added (20 μL solution from 5 mg mL^−1 stock solution prepared in phosphate buffer saline, pH 7.4) to each well and plates were further incubated for 4–5 h at 37 °C in a CO2 incubator. The supernatant was aspirated and the formazan crystals were dissolved in 150 μL of DMSO. The absorbance (A) of final products was measured using multiplate ELISA reader (BioRad) at 570 nm. The percentage of cell viability was calculated and IC50 (50% inhibitory concentration) values of each hydrazone derivative were estimated (paclitaxel was taken as a positive control for cell proliferation studies).
# [7] = target: T1, MARK4 (Homo sapiens, UniProt Q96L34); assay: MARK4 ATPase enzyme inhibition assay; assay type: biochemical
# T1 construct: MARK4 protein was expressed and purified by following previous protocols; made in house
# T1 sequence (Q96L34 1-752): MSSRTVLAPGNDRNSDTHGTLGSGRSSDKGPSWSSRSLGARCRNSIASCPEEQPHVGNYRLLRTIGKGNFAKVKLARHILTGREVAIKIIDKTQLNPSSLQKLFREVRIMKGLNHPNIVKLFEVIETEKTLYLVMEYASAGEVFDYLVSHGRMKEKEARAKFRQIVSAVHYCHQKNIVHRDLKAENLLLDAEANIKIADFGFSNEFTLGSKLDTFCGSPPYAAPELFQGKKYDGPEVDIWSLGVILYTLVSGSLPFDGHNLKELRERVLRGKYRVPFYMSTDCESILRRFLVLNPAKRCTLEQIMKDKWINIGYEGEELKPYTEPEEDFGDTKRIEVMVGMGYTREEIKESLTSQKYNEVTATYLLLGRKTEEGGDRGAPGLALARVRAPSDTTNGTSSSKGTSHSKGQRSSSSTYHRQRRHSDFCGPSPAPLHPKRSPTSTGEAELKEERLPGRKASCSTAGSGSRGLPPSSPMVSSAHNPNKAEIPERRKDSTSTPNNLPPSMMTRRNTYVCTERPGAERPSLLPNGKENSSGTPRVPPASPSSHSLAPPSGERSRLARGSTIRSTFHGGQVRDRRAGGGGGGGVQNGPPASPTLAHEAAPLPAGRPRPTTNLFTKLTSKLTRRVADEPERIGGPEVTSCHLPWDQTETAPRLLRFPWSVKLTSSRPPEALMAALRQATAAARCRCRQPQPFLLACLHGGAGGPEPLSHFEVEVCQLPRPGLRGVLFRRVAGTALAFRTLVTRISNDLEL
# Procedure: MARK4 protein was expressed and purified by following previous protocols.[27,37] The purity of the protein was further confirmed by a single band shown by SDS PAGE. ATPase assay was carried out to evaluate the enzyme activity of MARK4 in the presence of selected hydrazone derivatives. The activity of MARK4 was studied with the increasing concentration of each selected hydrazone derivative by following our published protocol.[24,38]
# To further evaluate the inhibitory potential of selected compounds with MARK4, enzyme inhibition assay was performed (at a single dose of 10 μM). […] Thus, these two compounds were further selected and evaluated with MARK4 in a concentration-dependent manner. […] The percent inhibition of ATPase activity was plotted as a function of ligand concentration and used to estimate IC50 (concentration of 50% inhibition, Fig. 1A).
# [8] = system: A549 cells; assay: MTT cell proliferation assay, A549; assay type: cell-based; details: Homo sapiens, read-out: IC50, cell proliferation, A549 cells
# Procedure: as §3
# [9] = system: A549 cells; assay: Annexin-V/PI apoptosis assay by flow cytometry, A549; assay type: cell-based, human; details: IC50 concentration, 48 h
# Procedure: (§4) Annexin-V staining was used to assess the apoptotic potential of the selected hydrazones as described.[22,41] Briefly, cells were treated with IC50 concentration of selected hydrazones for 24 h and control cells were treated with DMSO/culture medium only. After 24 h incubation, approximately 2.0–2.5 × 10^6 cells were collected by trypsinization and washed twice with PBS (5–10 mL). Finally, FITC labelled Annexin-V and PE labelled PI was used for staining the cells using the FITC-Annexin-V kit by following manufacture instructions (BD-Biosciences, USA). Nearly, 10 000 events were recorded using BD LSR II Flow Cytometry Analyzer and analyzed by FlowJo software.
# (§5) Cancer cells support their growth and maintenance by evading the apoptotic pathways.[48] MARK4 regulates the cancer cell growth and proliferation via modulating the apoptotic pathways.[12,15,46] The treatment of MCF-7 and A549 cells with H4 and H19 inhibit the activity of MARK4, decreases cell proliferation and migration raises the evaluation of these MARK4 inhibitors for the apoptosis induction. Thus, to investigate whether the selected inhibitor induces cell death via apoptosis or not, we have performed Annexin-V/PI staining using flow cytometry. Cells were treated with IC50 concentration of each molecule for 48 h and processed for apoptosis analysis. […]
# [10] = target: human serum albumin (HSA) (Homo sapiens, UniProt P02768); assay: Fluorescence quenching binding study with HSA; details: Stern–Volmer plot, ligand 0–20 μM, HSA 5–10 μM
# Procedure: (§6) The binding affinity of selected hydrazone derivatives with human serum albumin (HSA) and MARK4 was carried out using fluorescence binding studies as described.[39] The values of binding constant (Ka) and a number of binding sites present in protein (n) were obtained by using the modified Stern–Volmer equation from the intercept and slope, respectively.
# (§7) To measure the actual binding affinity of selected ligands with MARK4 and HSA, fluorescence quenching studies were performed.[43,44] Both MARK4 and HSA contain tryptophan residues, therefore it has been used as an intrinsic fluorophore to estimate the interaction of ligand. Protein was excited at 280 nm and the emission spectrum was recorded in 300–400 nm range. With increasing ligand concentrations (0–20 μM), the fluorescence intensity of MARK4 and HSA was decreases in a concentration-dependent manner (Fig. 3 and 4), indicating a considerable binding. Values of Ka and n were calculated from fluorescence emission spectra using the Stern–Volmer plot. […]
# (§8) Fig. 4 Binding of compound H4 and H19 with HSA. (A) Fluorescence emission spectra of HSA (5–10 μM) with increasing concentrations of compound H4 and H19. (B) Stern–Volmer plot obtained from the fluorescence quenching data of HSA by compound H4 and H19, respectively. Protein sample was excited at 280 nm and emission for each titration was recorded in the range of 300–400 nm. […]
# [11] = system: MCF-7 cells; assay: Annexin-V/PI apoptosis assay by flow cytometry, MCF-7; assay type: cell-based, human; details: IC50 concentration, 48 h
# Procedure: as §4, §5
# [12] = target: T1, MARK4; assay: Fluorescence quenching binding study with MARK4; details: Stern–Volmer plot, ligand 0–20 μM, MARK4 5 μM
# Procedure: as §6, §7
# as §8, with “Fig. 3” for “Fig. 4”, “with MARK4.” for “with HSA.”, “of MARK4 (5” for “of HSA (5–10”, “of MARK4” for “of HSA”
# [13] = system: MCF-7 cells; assay: MTT cell proliferation assay, MCF-7; assay type: cell-based; details: Homo sapiens, read-out: IC50, cell proliferation, MCF-7 cells
# Procedure: as §3
# [14] = bound stated after screen at a single dose of 10 μM, read-out: IC50, MARK4 enzyme inhibition
# [15] = cell-free, concentration-dependent, read-out: IC50, inhibition of ATPase activity of MARK4
# human serum albumin (HSA), sequence (P02768 25-609): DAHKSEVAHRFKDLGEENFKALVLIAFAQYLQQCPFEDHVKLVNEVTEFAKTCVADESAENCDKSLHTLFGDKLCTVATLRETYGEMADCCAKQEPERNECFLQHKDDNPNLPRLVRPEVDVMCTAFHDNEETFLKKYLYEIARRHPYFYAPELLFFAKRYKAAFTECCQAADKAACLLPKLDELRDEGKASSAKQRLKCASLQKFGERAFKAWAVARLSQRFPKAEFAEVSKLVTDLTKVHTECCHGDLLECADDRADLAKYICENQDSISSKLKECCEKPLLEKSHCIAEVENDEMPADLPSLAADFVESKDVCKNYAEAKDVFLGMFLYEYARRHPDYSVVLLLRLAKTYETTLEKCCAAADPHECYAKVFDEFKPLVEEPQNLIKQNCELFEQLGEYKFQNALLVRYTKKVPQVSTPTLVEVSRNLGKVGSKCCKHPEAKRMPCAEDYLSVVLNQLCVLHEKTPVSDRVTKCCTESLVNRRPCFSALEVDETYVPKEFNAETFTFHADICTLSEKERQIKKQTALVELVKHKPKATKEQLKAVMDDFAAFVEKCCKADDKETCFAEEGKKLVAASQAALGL
SMILES,melting point,"cell migration, MCF-7 [1]","number of colonies, A549 [2]","cell migration, A549 [3]",protein level of MARK4 [4],protein level of p-tau [4],"number of colonies, MCF-7 [5]",cytotoxicity to non-cancerous cells [6],"IC50 [7, 14]","IC50 [7, 15]","apoptosis induced, share of A549 cells [9]","apoptosis induced, share of MCF-7 cells [11]",further results
CN(C)CCOc1ccc(C(=O)NN=Cc2ccc([N+](=O)[O-])cc2)cc1 [H6],96 to 100 °C,–,–,–,–,–,–,–,–,–,–,–,–
Cc1cc(C)c(C=NNC(=O)c2ccc(OCCN(C)C)cc2)c(C)c1 [H19],–,lesser number of cells were migrated,significantly decreased,lesser number of cells were migrated,decreases,decreases,significantly decreased,less toxic,< 1 µM,0.215 µM,24.25%,26.71%,"IC50 ([8]; A549, 48 h): 61.5 µM; Kd ([10]; read-out: binding constant Ka for HSA (converted)): 7.69 µM; Kd ([12]; read-out: binding constant Ka for MARK4 (converted)): 0.0104 µM; IC50 ([13]; MCF7, 48 h): 34.4 µM"
CN(C)CCOc1ccc(C(=O)NN=Cc2ccc(O)cc2)cc1 [H8],109 to 114 °C,–,–,–,–,–,–,–,–,–,–,–,–
CN(C)CCOc1ccc(C(=O)NN=Cc2ccccc2O)cc1 [H7],149 to 153 °C,–,–,–,–,–,–,–,–,–,–,–,–
CN(C)CCOc1ccc(C(=O)NN=Cc2ccc(Cl)cc2)cc1 [H4],–,lesser number of cells were migrated,significantly decreased,lesser number of cells were migrated,decreases,decreases,significantly decreased,less toxic,< 1 µM,0.149 µM,28.5%,30.29%,"IC50 ([8]; A549, MTT, 48 h, 0–200 μM): 45.2 µM; binding constant Ka for HSA [10]: 443000 M⁻¹; binding constant Ka for MARK4 [12]: 4.07e+09 M⁻¹; IC50 ([13]; MCF7, MTT, 48 h, 0–200 μM): 27.4 µM"
CN(C)CCOc1ccc(C(=O)NN=Cc2cccc([N+](=O)[O-])c2)cc1 [H5],125 to 130 °C,–,–,–,–,–,–,–,–,–,–,–,–
